{
  "source": "patent US20090111781A1",
  "about": "“Use of Cymipristone Type Compounds in Aids Treatment” (SHANGHAI THREE-ALLIANCE BIOTECHNOLOGIES CO., LTD., priority 2005, published 2009)",
  "key": {"estrogen receptor ERβ": {"molecular_target": "estrogen receptor ERβ (Homo sapiens, UniProt Q92731)", "sequence (Q92731 whole entry)": "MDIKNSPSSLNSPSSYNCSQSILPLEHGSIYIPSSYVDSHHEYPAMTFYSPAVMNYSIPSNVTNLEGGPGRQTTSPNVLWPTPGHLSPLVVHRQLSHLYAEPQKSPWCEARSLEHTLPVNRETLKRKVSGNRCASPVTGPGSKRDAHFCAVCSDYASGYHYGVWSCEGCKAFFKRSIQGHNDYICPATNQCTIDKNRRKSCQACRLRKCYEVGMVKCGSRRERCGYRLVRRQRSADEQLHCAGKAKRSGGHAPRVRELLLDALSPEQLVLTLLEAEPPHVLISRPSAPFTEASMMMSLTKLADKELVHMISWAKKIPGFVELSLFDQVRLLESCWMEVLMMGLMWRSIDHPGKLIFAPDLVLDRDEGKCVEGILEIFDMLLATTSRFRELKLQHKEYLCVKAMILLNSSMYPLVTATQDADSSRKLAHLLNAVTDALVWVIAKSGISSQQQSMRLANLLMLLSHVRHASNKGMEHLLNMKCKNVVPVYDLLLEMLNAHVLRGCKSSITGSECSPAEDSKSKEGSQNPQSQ", "assay": "Binding activity on human nuclear receptor ERβ", "details": "mean ± SD, n = 4", "procedure": "(§1) Buffer solution is composed of 25 mM NaPO4, 20 mM NaMoO4, 10 mM KF and 10% glycerol (pH=7.3) and stored under 4° C. Stock solution is prepared with CHAPS and DTT and stored under −20° C. […] Add 2.5 μl/hole into 96-pore plate. Take out appropriate amount of buffer solution reserve into solution to make the final concentration of CHAPS and DDT to become 0.25 mM and 2 mM respectively. Add protease inhibitors (aprotinin and leupeptin) to make its final concentration to become 1 μg/μl, and place in an ice bath. After adding human nuclear receptor GR (1:8), PR (1:100), ER (1:2000), AR (1:200) and MR (1:40) into the reaction system respectively, adequately mix suitable quantity of [^3H]-dexamethasone, [^3H]-progesterone, [^3H]-estradiol and [^3H]-DHT (from Amersham), rapidly add into 96-pore plate (100 μl/pore) and incubate overnight under 4° C. On the next day, add 25 μl of hydroxyapatite suspension into each pore and mix with shaking. After incubating for 10 min, separate by centrifuge for 3 min at 2500 rpm. The precipitate is washed with 100 μl of buffer solution and separated by centrifuge twice. Add 150 μl of scintillation solution (from Perkin Elmer) into each pore, mix with shaking and count by MicroBeta counter."}, "[1]": {"molecular_target": "T1, mineralocorticoid receptor (MR) (Homo sapiens, UniProt P08235)", "T1 sequence (P08235 1-984)": "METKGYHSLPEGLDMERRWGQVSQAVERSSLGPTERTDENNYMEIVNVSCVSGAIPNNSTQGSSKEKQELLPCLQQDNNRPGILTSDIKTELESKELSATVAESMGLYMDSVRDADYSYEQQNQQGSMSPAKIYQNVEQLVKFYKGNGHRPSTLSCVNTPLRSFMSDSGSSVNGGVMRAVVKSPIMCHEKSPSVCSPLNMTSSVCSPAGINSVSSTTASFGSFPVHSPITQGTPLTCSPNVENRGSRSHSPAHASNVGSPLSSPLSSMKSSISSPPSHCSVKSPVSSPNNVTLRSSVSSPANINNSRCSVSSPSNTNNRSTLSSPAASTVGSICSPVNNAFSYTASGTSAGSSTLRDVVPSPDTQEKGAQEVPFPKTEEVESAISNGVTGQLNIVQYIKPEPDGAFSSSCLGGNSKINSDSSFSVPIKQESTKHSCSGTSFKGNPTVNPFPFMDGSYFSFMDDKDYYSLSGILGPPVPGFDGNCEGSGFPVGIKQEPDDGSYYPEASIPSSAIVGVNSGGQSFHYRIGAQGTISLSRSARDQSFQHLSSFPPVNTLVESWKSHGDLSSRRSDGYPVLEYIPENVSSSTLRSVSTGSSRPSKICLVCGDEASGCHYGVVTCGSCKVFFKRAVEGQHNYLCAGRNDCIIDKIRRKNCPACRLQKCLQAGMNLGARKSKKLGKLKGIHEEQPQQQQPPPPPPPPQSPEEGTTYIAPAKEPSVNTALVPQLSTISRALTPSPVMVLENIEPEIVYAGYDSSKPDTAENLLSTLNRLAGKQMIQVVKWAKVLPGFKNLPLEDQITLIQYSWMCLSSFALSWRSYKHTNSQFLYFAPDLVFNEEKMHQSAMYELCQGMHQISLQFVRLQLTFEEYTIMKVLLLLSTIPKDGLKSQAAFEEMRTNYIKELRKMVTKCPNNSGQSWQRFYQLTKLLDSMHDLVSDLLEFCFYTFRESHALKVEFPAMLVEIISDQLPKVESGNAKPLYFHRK", "assay": "Binding activity on human nuclear receptor MR", "details": "n = 4", "procedure": "as §1"}, "androgen receptor (AR)": {"molecular_target": "T2, androgen receptor (AR) (Homo sapiens, UniProt P10275)", "T2 sequence (P10275 1-920)": "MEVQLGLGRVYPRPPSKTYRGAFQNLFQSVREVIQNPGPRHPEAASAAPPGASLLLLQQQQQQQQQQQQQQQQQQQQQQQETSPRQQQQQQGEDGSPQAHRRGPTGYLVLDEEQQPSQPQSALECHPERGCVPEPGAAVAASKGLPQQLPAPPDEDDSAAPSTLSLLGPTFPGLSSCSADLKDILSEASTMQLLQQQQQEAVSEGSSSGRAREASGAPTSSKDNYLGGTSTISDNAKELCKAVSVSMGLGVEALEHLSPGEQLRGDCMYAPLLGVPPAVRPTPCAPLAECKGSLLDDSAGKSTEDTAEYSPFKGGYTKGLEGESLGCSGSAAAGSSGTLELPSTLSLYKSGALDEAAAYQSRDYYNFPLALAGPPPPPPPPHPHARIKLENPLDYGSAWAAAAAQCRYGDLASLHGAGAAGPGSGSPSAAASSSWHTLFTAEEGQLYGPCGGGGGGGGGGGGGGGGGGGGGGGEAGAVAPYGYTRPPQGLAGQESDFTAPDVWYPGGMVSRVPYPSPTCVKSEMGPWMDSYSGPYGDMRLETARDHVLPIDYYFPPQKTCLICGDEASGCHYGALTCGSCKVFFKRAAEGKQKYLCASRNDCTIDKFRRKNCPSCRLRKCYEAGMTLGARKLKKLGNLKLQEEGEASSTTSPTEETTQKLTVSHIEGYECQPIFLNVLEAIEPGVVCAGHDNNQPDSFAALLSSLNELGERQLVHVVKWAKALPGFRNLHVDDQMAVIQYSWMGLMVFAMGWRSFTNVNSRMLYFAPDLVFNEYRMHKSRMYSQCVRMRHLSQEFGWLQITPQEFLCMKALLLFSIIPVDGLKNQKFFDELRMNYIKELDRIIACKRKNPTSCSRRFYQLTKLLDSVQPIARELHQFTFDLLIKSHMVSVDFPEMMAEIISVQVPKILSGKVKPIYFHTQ", "assay": "Binding activity on human nuclear receptor AR", "details": "mean ± SD, n = 4", "procedure": "as §1"}},
  "data": [
    {"smiles": "CC#C[C@]1(O)CC[C@H]2[C@@H]3CCC4=CC(=O)CCC4=C3[C@@H](c3ccc(N(C)C4CCCCC4)cc3)C[C@@]21C", "note": "[Cymipristone, 11β-[4-(N-methyl-N-cyclohexylamino)phenyl]-17α-(1-propynyl)-17β-hydroxyl-4,9-estradiene-3-one]", "values": [
      {"measurement": "IC50", "setting": "estrogen receptor ERβ", "result": "278.7 ± 0.63", "unit": "nM"},
      {"measurement": "IC50", "setting": "[1]", "result": "> 2000", "unit": "nM"},
      {"measurement": "IC50", "setting": "androgen receptor (AR)", "result": "69.6 ± 15.4", "unit": "nM"}
    ]}
  ]
}
